One series has as its system SK-OV3. The series can be described thus: Cytotoxicity on human cancer cells in tissue culture, crystal violet staining. Type of series: cell-based. As for the experimental part: (§1) The anti-tumoral activity of compounds was determined in tissue culture media of pH of 6.8 and 7.4. Cells were incubated for 2 h with the test compounds, followed by 24-96 h incubation with regular, inhibitor free medium of pH 7.4. The substances were serially diluted in tissue culture medium of the desired pH. After incubation, surviving cells were stained with crystal violet and the optical density was measured in an ELISA reader.

A further series deals with SK-MEL-25. The series is described as above. Type of series: cell-based. The protocol: as §1
A further series relates to MCF-7. Described as above. The class given is cell-based. The protocol: as §1
In a further series the test system is Calu-6. The series is described as above. Type of series: cell-based. As for the experimental part: as §1
The next series relates to LXF-289. Described as above. Type of series: cell-based. As for the experimental part: as §1
In a further series the test system is KB. Described as above. Type of series: cell-based. As for the experimental part:
as §1

Series [1] deals with six human tumor cell lines. The series can be described thus: Cytotoxic activity in a panel of six human tumor lines (comparisons and pH quotient). The class given is cell-based. Particulars: mean ± SD over the human tumor cell lines tested. As for the experimental part:
FIG. 2: Mean quotient of IC50 at pH 7.4/IC50 at pH 6.8 Mean values ±SD of IC50 at pH 7.4/IC50 at pH 6.8 for all six human tumor cell lines tested. IC50at both pH conditions were obtained for four cell lines.
Calu-6 (adenocarcinoma, lung), SK-MEL-25 (melanoma), MCF-7 (mamma carcinoma), LXF-289 (adenocarcinoma, lung), SK-OV -3 (adenocarcinoma, ovary), KB (squameous cell carcinoma, head and neck) were obtained from ATCC and were cultivated according to the instructions of the supplier at 37° C., 5% CO2 atmosphere and 100% relative humidity.
The anti-tumoral activity of compounds was determined in tissue culture media of pH of 6.8 and 7.4. Cells were incubated for 2 h with the test compounds, followed by 24-96 h incubation with regular, inhibitor free medium of pH 7.4. The substances were serially diluted in tissue culture medium of the desired pH. After incubation, surviving cells were stained with crystal violet and the optical density was measured in an ELISA reader. The concentration which was needed to reduce the cell number by 50% (IC50) was determined from dose-response curves for each compound.

Series [2] has as its system human tumors xenotransplanted in nude mice. As to conditions: cited from earlier work.
A further series concerns tumor cells. Particulars: cited from earlier work.
The mark [3] stands for this setting: SK-0V-3, pH 6.8, 2 h incubation, mean of four assays.
Setting [4] is: SK-0V-3, pH 7.4, 2 h incubation, mean of four assays.
Setting [5] is: SK-MEL-25, pH 6.8, 2 h incubation, mean of four assays.
Setting [6] is: SK-MEL-25, pH 7.4, 2 h incubation, mean of four assays.
Setting [7] is: MCF-7, pH 6.8, 2 h incubation, mean of four assays.
[8] abbreviates: MCF-7, pH 7.4, 2 h incubation, mean of four assays.
[9] abbreviates: Calu-6, pH 6.8, 2 h incubation, mean of four assays.
The mark [10] stands for this setting: Calu-6, pH 7.4, 2 h incubation, mean of four assays.
The mark [11] stands for this setting: LXF-289, pH 6.8, 2 h incubation, mean of four assays.
Where [12] appears, read: LXF-289, pH 7.4, 2 h incubation, mean of four assays.
The mark [13] stands for this setting: KB, pH 6.8, 2 h incubation, mean of four assays.
[14] abbreviates: KB, pH 7.4, 2 h incubation, mean of four assays.

One may read the IC50 as the concentration at which inhibition is half-maximal. Lower therefore signals greater potency.

Turning to `COC(=S)[S][Pt][S]C(=S)OC` [r1, Bis(O-methyl-dithiocarbonato)platinum (II)], the IC50 was 26 ± 2.4 µM in the series with SK-OV3 (pH 6.8); 47 ± 2.9 µM with SK-OV3 (pH 7.4); 14 ± 5 µM in the series with SK-MEL-25 (pH 6.8); 80 ± 25.9 µM with SK-MEL-25 (pH 7.4); 7 ± 1 µM with MCF-7 (pH 6.8); 19 ± 4.4 µM with MCF-7 (pH 7.4). For the same compound, the IC50 in the series with Calu-6 (pH 6.8) stood at 11 ± 2.9 µM; with Calu-6 (pH 7.4) it was 21 ± 5.6 µM; with LXF-289 (pH 6.8), 39 ± 9.5 µM; in the series with LXF-289 (pH 7.4), 102 ± 19.3 µM; with KB (pH 6.8) it was 20 ± 1 µM; with KB (pH 7.4), 49 ± 2 µM.

On to “Bis(O-propyl-dithiocarbonato)platinum(II) [r3]”, for which the IC50 turned out to be 45 ± 27 µM in the series with SK-OV3 (setting [3]); 50 ± 1 µM with SK-OV3 (setting [4]); 10 ± 1.5 µM in the series on SK-MEL-25 (setting [5]); 21 ± 1.9 µM with SK-MEL-25 (setting [6]); 4 ± 1 µM in the series on MCF-7 (setting [7]); 9 ± 3 µM in the series on MCF-7 (setting [8]). The IC50 is 7 ± 1.1 µM in the series on Calu-6 (setting [9]); 21 ± 0.9 µM with Calu-6 (setting [10]); 37 ± 9 µM in the series on LXF-289 (setting [11]); 49 ± 5 µM in the series on LXF-289 (setting [12]); 12 ± 1 µM in the series on KB (setting [13]); 38 ± 3 µM in the series on KB (setting [14]).

Turning to “Bis(O-cyclobutyl-dithiocarbonato)platinum(II) [Compound 18]”, the IC50 in the series with SK-OV3 (setting [3]) came out at 17 ± 2.9 µM; in the series with SK-OV3 (setting [4]), 19 ± 4.1 µM; in the series on SK-MEL-25 (setting [5]), 7 ± 1 µM; in the series with SK-MEL-25 (setting [6]) it was 12 ± 3.7 µM; with MCF-7 (setting [7]), 11 ± 0.8 µM; in the series with MCF-7 (setting [8]), 21 ± 1 µM. In addition, the IC50 worked out at 3 ± 0.4 µM in the series with Calu-6 (setting [9]); 7 ± 1.2 µM in the series on Calu-6 (setting [10]); 37 ± 1.4 µM in the series with LXF-289 (setting [11]); 44 ± 0.8 µM in the series on LXF-289 (setting [12]); 6 ± 0.6 µM in the series with KB (setting [13]); 20 ± 2.9 µM in the series with KB (setting [14]).

As for `CC(C)OC(=S)[S][Pt][S]C(=S)OC(C)C` [Compound 15, Bis(O-isopropyl-dithiocarbonato)platinum(II)], the IC50 in the series on SK-OV3 (setting [3]) stood at 14 ± 2.1 µM; with SK-OV3 (setting [4]) it was 33 ± 8 µM; in the series with SK-MEL-25 (setting [5]), 6 ± 0.4 µM; in the series with SK-MEL-25 (setting [6]), 12 ± 1.5 µM; with MCF-7 (setting [7]), 3 ± 0.9 µM; in the series with MCF-7 (setting [8]) it was 7 ± 3 µM. Further, the IC50 in the series on Calu-6 (setting [9]) stood at 6 ± 0.6 µM; in the series on Calu-6 (setting [10]), 10 ± 0.6 µM; in the series with LXF-289 (setting [11]), 10 ± 1.7 µM; in the series on LXF-289 (setting [12]), 30 ± 0.4 µM; in the series with KB (setting [13]), 6 ± 0.4 µM; in the series on KB (setting [14]), 10 ± 0.9 µM. Besides, the “Mean quotient of IC50 at pH 7.4/IC50 at pH 6.8” value in series [1] is given as 2.18±0.49.

Consider `N.N.[Cl][Pt][Cl]` [Cisplatin, cis-dichloro-diammine-platinum(II)], for which the IC50 in the series with SK-OV3 (setting [3]) was found to be 64 ± 0.7 µM; in the series on SK-OV3 (setting [4]) it was 90 ± 2.77 µM; with SK-MEL-25 (setting [5]) it was 78 ± 3.3 µM; in the series with SK-MEL-25 (setting [6]) it was 90 ± 25 µM; with MCF-7 (setting [7]), 108 ± 27 µM; in the series on MCF-7 (setting [8]), 160 ± 30 µM. Besides, the IC50 in the series on Calu-6 (setting [9]) was 16 ± 1 µM; with Calu-6 (setting [10]) it was 25 ± 5.7 µM; in the series on LXF-289 (setting [11]), 113 ± 22.3 µM; with LXF-289 (setting [12]) it was 83 ± 23 µM; with KB (setting [13]) it was 55 ± 2 µM; with KB (setting [14]) it was 52 ± 3.3 µM.

Turning to `CCOC(=S)[S][Pt][S]C(=S)OCC` [r2, Bis(O-ethyl-dithiocarbonato)platinum(II)], the “toxicity on kidneys, small intestines and white blood cell count” value in series [2] (mouse, in vivo) is listed as “significantly lower toxicity”. The “anti-tumoral activity on human tumors xenotransplanted in nude mice” value in series [2] (versus cisplatin) is on record as “comparable to cisplatin”. The IC50 amounted to 86 ± 3.2 µM in the series on SK-OV3 (setting [3]); 98 ± 16.5 µM with SK-OV3 (setting [4]); 21 ± 3 µM in the series on SK-MEL-25 (setting [5]); 56 ± 6.2 µM with SK-MEL-25 (setting [6]); 12 ± 0.2 µM in the series on MCF-7 (setting [7]); 47 ± 5.3 µM with MCF-7 (setting [8]). Moreover, the IC50 in the series on Calu-6 (setting [9]) came out at 21 ± 3.9 µM; in the series with Calu-6 (setting [10]), 24 ± 0.9 µM; in the series on LXF-289 (setting [11]), 45 ± 8 µM; with LXF-289 (setting [12]), 91 ± 24.9 µM; with KB (setting [13]), 18 ± 4 µM; with KB (setting [14]), 58 ± 5 µM. For the same compound, the “cytotoxicity in media of pH 6.8 as compared to pH 7.4” value in the series on tumor cells was “significantly higher cytotoxicity”.
